According to ChEMBL document CHEMBL1201862, “PubChem BioAssay data set” (2004):
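Five compound concentrations were applied to cells in 96-well plates for 48 hours; endpoints were derived by simple linear interpolation of the resulting dose-response curve. Here, GI50 denotes the concentration required for 50% inhibition of growth.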 Calls of active or inactive are those of the source. No stated cut-off is given here; in the data, active = GI50 up to about 1.1 µM and inactive = higher.

How the values were obtained:
Test in all cases: inhibition of tumour cell growth, NCI panel, 48 h
HOP-62 = system: HOP-62
MDA-MB-435 = system: MDA-MB-435
Hs-578T = system: Hs-578T
HCC 2998 = system: HCC 2998
NCI-H226 = system: NCI-H226
HOP-92 = system: HOP-92
COLO 205 = system: COLO 205
PC-3 = system: PC-3
UACC-257 = system: UACC-257
SW-620 = system: SW-620
DU-145 = system: DU-145
HCT-15 = system: HCT-15
SNB-75 = system: SNB-75
OVCAR-4 = system: OVCAR-4
SF-268 = system: SF-268
786-0 = system: 786-0
RPMI-8226 = system: RPMI-8226
TK-10 = system: TK-10

Row | SMILES | GI50 (HOP-62) | GI50 (MDA-MB-435) | GI50 (Hs-578T) | GI50 (HCC 2998) | GI50 (NCI-H226) | GI50 (HOP-92) | GI50 (COLO 205) | GI50 (PC-3) | GI50 (UACC-257) | GI50 (SW-620) | GI50 (DU-145) | GI50 (HCT-15) | GI50 (SNB-75) | GI50 (OVCAR-4) | GI50 (SF-268) | GI50 (786-0) | GI50 (RPMI-8226) | GI50 (TK-10)
1 | Cc1nc2ccc(Br)cc2c(=O)n1-c1nnc(C(C)(C)C)s1 | > 10 µM (inactive) | > 10 µM (inactive) | 7.46 µM (inactive) | > 10 µM (inactive) | > 10 µM (inactive) | > 10 µM (inactive) | > 10 µM (inactive) | > 10 µM (inactive) | > 10 µM (inactive) | > 10 µM (inactive) | > 10 µM (inactive) | > 10 µM | > 10 µM (inactive) | > 10 µM (inactive) | > 10 µM (inactive) | > 10 µM (inactive) | > 10 µM (inactive) | > 10 µM (inactive)
2 | CCn1ncc2c1nc(-c1ccccc1)c[n+]2[O-] | 2.22 µM (inactive) | > 100 µM (inactive) | 61.1 µM (inactive) | – | – | – | > 100 µM (inactive) | > 100 µM (inactive) | > 100 µM (inactive) | – | 5.82 µM (inactive) | > 100 µM | 36.9 µM (inactive) | – | > 100 µM (inactive) | > 100 µM (inactive) | > 100 µM (inactive) | –
3 | O=c1cc(-c2ccccc2)[nH]c2cc(F)c(F)cc12 | 1.33 µM (inactive) | 0.1 µM (active) | 0.423 µM (active) | 5.11 µM (inactive) | 1.55 µM (inactive) | 0.789 µM (active) | 0.661 µM (active) | 0.222 µM (active) | 0.498 µM (active) | 0.355 µM (active) | 0.472 µM (active) | 0.472 µM | 0.274 µM (active) | > 51.4 µM (inactive) | 1.45 µM (inactive) | 0.238 µM (active) | 0.309 µM (active) | 3.83 µM (inactive)
4 | C=C1OC(=O)[C@]2([C@@H](/C=C/C)C=CC(=O)[C@H]2O)[C@@H]1O | > 100 µM (inactive) | > 100 µM (inactive) | > 100 µM (inactive) | > 100 µM (inactive) | > 100 µM (inactive) | – | > 100 µM (inactive) | > 100 µM (inactive) | > 100 µM (inactive) | > 100 µM (inactive) | > 100 µM (inactive) | > 100 µM | > 100 µM (inactive) | > 100 µM (inactive) | > 100 µM (inactive) | > 100 µM (inactive) | > 100 µM (inactive) | > 100 µM (inactive)
5 | O=P1(N2CCOCC2)OCCO1 | – | > 100 µM (inactive) | > 100 µM (inactive) | > 100 µM (inactive) | – | > 100 µM (inactive) | > 100 µM (inactive) | > 100 µM (inactive) | > 100 µM (inactive) | > 100 µM (inactive) | > 100 µM (inactive) | > 100 µM | – | > 100 µM (inactive) | > 100 µM (inactive) | > 100 µM (inactive) | > 100 µM (inactive) | –
6 | CC(C)(C)c1cc2c(OP(c3ccccc3)c3ccccc3)c(c1)Cc1cc(C(C)(C)C)cc(c1OP(c1ccccc1)c1ccccc1)Cc1cc(C(C)(C)C)cc(c1OP(c1ccccc1)c1ccccc1)Cc1cc(C(C)(C)C)cc(c1OP(c1ccccc1)c1ccccc1)C2 | > 5 µM (inactive) | – | – | > 5 µM (inactive) | > 5 µM (inactive) | > 5 µM (inactive) | > 5 µM (inactive) | – | > 5 µM (inactive) | > 5 µM (inactive) | – | > 5 µM | > 5 µM (inactive) | > 5 µM (inactive) | > 5 µM (inactive) | > 5 µM (inactive) | > 5 µM (inactive) | > 5 µM (inactive)
7 | O=c1[nH]c(-c2ccc(-c3nc4cc([N+](=O)[O-])ccc4c(=O)[nH]3)cc2)nc2cc([N+](=O)[O-])ccc12 | > 100 µM (inactive) | – | – | > 100 µM (inactive) | > 100 µM (inactive) | > 100 µM (inactive) | > 100 µM (inactive) | – | > 100 µM (inactive) | > 100 µM (inactive) | – | > 100 µM | 42.1 µM (inactive) | 48.8 µM (inactive) | – | 72.9 µM (inactive) | > 100 µM (inactive) | > 100 µM (inactive)
